Measured values reported in publication PMC10214525, “A Turn-On Fluorescent Amino Acid Sensor Reveals Chloroquine’s Effect on Cellular Amino Acids via Inhibiting Cathepsin L” (ACS Central Science, 2023).

Experiments:
[1] = target: T1, Cathepsin L (CTSL) (Homo sapiens, UniProt P07711); assay: Z-FR-AMC fluorogenic cleavage assay, pH […]; supported by intrinsic fluorescence of CTSL-Flag and CQ-X chase; assay type: biochemical
T1 construct: commercial purified CTSL (BPS Biosciences kit); CTSL-Flag-Myc purified from HEK-293T for intrinsic fluorescence
T1 sequence (P07711 114-288): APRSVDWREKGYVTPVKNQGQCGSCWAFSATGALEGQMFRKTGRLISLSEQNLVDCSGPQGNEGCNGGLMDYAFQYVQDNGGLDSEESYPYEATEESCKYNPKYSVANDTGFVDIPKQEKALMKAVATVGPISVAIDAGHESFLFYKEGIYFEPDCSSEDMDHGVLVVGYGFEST
T1 sequence (P07711 292-333): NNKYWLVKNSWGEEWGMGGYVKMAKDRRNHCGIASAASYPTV

[2] = target: T2, NPC2 (Homo sapiens, UniProt P61916); assay: competition (chase) of CQ-X photo-cross-linking in cells; assay type: cell-based
T2 construct: endogenous, A549 cells
T2 sequence (P61916 20-151): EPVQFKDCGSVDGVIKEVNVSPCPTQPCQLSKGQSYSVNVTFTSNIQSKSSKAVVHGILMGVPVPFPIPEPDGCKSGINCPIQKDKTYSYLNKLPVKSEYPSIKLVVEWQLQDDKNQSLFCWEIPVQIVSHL

**Q.** How did the IC50 [1] turn out when `CCN(CC)CCCC(C)Nc1ccnc2cc(Cl)ccc12` (centres unmarked) [CQ, chloroquine] was run?
**A.** 181 µM

**Q.** What about the “competition (chase) of CQ-X photo-cross-linking in cells” value [2] of the same compound?
**A.** The results confirmed that chloroquine could bind to NPC2 and CTSL.
